Laboratory results from the supplement of paper PMC10307832.

Columns and labels:
Assay in all cases: relative viability (nuclei count vs DMSO), 5 days (fraction); higher = more cells survive
[1] = compound: C[C@@]1(C(=O)Nc2ccc(F)nc2)CCCN1c1nc(Nc2cc(C3CC3)n[nH]2)c2cccn2n1 + Nc1nc2[nH]cc(CCc3ccc(C(=O)N[C@@H](CCC(=O)O)C(=O)O)cc3)c2c(=O)[nH]1 [Pemetrexed] (partner 0.2 µM)
Outline: (§1)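 Medians of duplicate plates are given as relative viability. That measure is the nuclei count in treated wells divided by the count in vehicle wells. Counts were taken on 4× images of lung cancer cell lines in 1536-well plates, 5 days after pin-tool dosing the day after seeding with one drug alone or a fixed anchor-drug dose plus five library-drug doses (not always all listed) in √10 steps.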

[2] = compound: C[C@@]1(C(=O)Nc2ccc(F)nc2)CCCN1c1nc(Nc2cc(C3CC3)n[nH]2)c2cccn2n1 + COc1cc2c(Oc3ccc(NC(=O)C4(C(=O)Nc5ccc(F)cc5)CC4)cc3F)ccnc2cc1OCCCN1CCOCC1 [Foretinib] (partner 0.25 µM)
Outline: as §1

[3] = compound: CC1(C)CNc2cc(NC(=O)c3cccnc3NCc3ccncc3)ccc21 [Motesanib] + Nc1nc2[nH]cc(CCc3ccc(C(=O)N[C@@H](CCC(=O)O)C(=O)O)cc3)c2c(=O)[nH]1 [Pemetrexed] (partner 0.2 µM)
Outline: as §1

[4] = compound: C[C@@]1(C(=O)Nc2ccc(F)nc2)CCCN1c1nc(Nc2cc(C3CC3)n[nH]2)c2cccn2n1 + CC(=O)Nc1cccc(-n2c(=O)n(C3CC3)c(=O)c3c(Nc4ccc(I)cc4F)n(C)c(=O)c(C)c32)c1 [Trametinib] (partner 0.02 µM)
Outline: as §1

Cell Line	relative viability ([1]; first compound 0.04 µM)	relative viability ([1]; first compound 0.1265 µM)	relative viability ([1]; first compound 0.4 µM)	relative viability ([1]; first compound 1.265 µM)	relative viability ([2]; first compound 0.04 µM)	relative viability ([2]; first compound 0.1265 µM)	relative viability ([2]; first compound 0.4 µM)	relative viability ([2]; first compound 1.265 µM)	relative viability ([3]; first compound 0.01 µM)	relative viability ([3]; first compound 0.03162 µM)	relative viability ([3]; first compound 0.1 µM)	relative viability ([3]; first compound 0.3162 µM)	relative viability ([3]; first compound 1 µM)	relative viability ([4]; first compound 0.04 µM)	relative viability ([4]; first compound 0.1265 µM)	relative viability ([4]; first compound 0.4 µM)	relative viability ([4]; first compound 1.265 µM)
NCI-H2342	0.819	0.725	0.579	0.664	1.02	0.906	0.812	0.917	0.8	0.748	0.795	0.794	0.912	0.668	0.813	0.605	0.7
HCC-15	0.216	0.225	0.209	0.211	0.906	0.485	0.614	0.686	0.212	0.203	0.188	0.179	0.202	0.237	0.204	0.19	0.264
A-427	0.989	0.939	0.927	0.813	1.19	0.988	0.785	1.15	0.963	0.912	0.963	0.992	0.972	0.644	0.548	0.537	0.579
NCI-H2228	0.388	0.355	0.317	0.286	0.719	0.686	0.491	0.537	0.366	0.292	0.254	0.191	0.241	0.485	0.287	0.276	0.302
NCI-H1734	0.418	0.338	0.404	0.381	0.603	0.494	0.336	0.408	0.408	0.386	0.333	0.272	0.265	0.527	0.512	0.403	0.563
PC-14	0.154	0.155	0.134	0.121	1.04	0.888	0.813	0.93	0.131	0.126	0.132	0.128	0.13	0.765	0.649	0.696	0.687
NCI-H1915	0.52	0.46	0.48	0.529	1.11	1.04	1.04	1.18	0.54	0.484	0.451	0.463	0.442	0.316	0.261	0.272	0.338
NCI-H1666	0.797	0.735	0.714	0.683	0.925	0.909	0.778	0.784	0.954	0.831	0.816	0.868	0.824	0.826	0.688	0.697	0.755
HCC-366	0.21	0.245	0.212	0.163	0.957	0.922	0.9	1.07	0.189	0.154	0.18	0.147	0.143	0.4	0.197	0.194	0.178
SK-MES-1	0.948	0.93	0.838	0.796	0.9	0.853	0.542	0.948	0.912	0.953	1.03	0.943	1.02	0.604	0.483	0.522	0.633
SW 1573	0.847	0.749	0.803	0.244	0.744	0.826	0.494	0.659	0.764	0.833	0.864	0.882	0.854	0.496	0.389	0.368	0.412
NCI-H661	0.918	0.909	0.796	0.899	1.04	1.03	1.06	0.936	0.862	0.925	0.887	0.986	0.961	0.605	0.55	0.591	0.555
PC-3 [JPC-3]	1.19	1.03	1.04	0.839	1.08	1.02	0.959	1.34	1.02	1.04	1.04	1.03	0.974	0.628	0.441	0.513	0.603
NCI-H1623					0.658	0.82	0.57	0.672									
Calu-6					0.959	0.871	0.758	0.414									
LC-2-ad	0.28	0.242	0.263	0.211	0.651	0.617	0.599	0.5	0.289	0.259	0.268	0.262	0.256	0.848	0.749	0.648	0.735
CAL-12T	0.818	0.999	0.777	0.812	1.15	1.06	0.897	0.4	1.17	1.17	1.19	1.16	1.08	0.333	0.214	0.351	0.253
RERF-LC-KJ	0.467	0.421	0.438	0.436	0.815	0.777	0.659	0.714	0.471	0.502	0.495	0.472	0.527	0.84	0.665	0.639	0.685
NCI-H1650	0.38	0.29	0.334	0.319	1.53	1.16	0.984	1.08	0.357	0.367	0.33	0.349	0.425	0.672	0.5	0.51	0.572
BEN	0.919	0.65	0.616	0.653	0.918	0.649	0.678	0.536	0.539	0.774	0.73	0.582	0.749	1.07	1.01	1.04	0.979
EMC-BAC-2	0.454	0.42	0.471	0.439	0.849	0.721	0.327	0.574	0.412	0.408	0.471	0.412	0.524	0.801	0.533	0.443	0.558
LU99A	0.187	0.165	0.183	0.165	0.602	0.467	0.478	0.432	0.2	0.181	0.185	0.18	0.174	0.411	0.352	0.399	0.504
ABC-1					0.773	0.782	0.744	0.38									

Cell Line	relative viability ([1]; first compound 0.04 µM)	relative viability ([1]; first compound 0.1265 µM)	relative viability ([1]; first compound 0.4 µM)	relative viability ([1]; first compound 1.265 µM)	relative viability ([2]; first compound 0.04 µM)	relative viability ([2]; first compound 0.1265 µM)	relative viability ([2]; first compound 0.4 µM)	relative viability ([2]; first compound 1.265 µM)	relative viability ([3]; first compound 0.01 µM)	relative viability ([3]; first compound 0.03162 µM)	relative viability ([3]; first compound 0.1 µM)	relative viability ([3]; first compound 0.3162 µM)	relative viability ([3]; first compound 1 µM)	relative viability ([4]; first compound 0.04 µM)	relative viability ([4]; first compound 0.1265 µM)	relative viability ([4]; first compound 0.4 µM)	relative viability ([4]; first compound 1.265 µM)
NCI-H2170	0.278	0.236	0.267	0.251	0.932	1.02	0.973	1.08	0.258	0.255	0.257	0.269	0.253	0.951	0.966	0.894	0.992
NCI-H1299					1.21	1.06	0.585	1.05									
EBC-1					0.114	0.0828	0.0953	0.11									
NCI-H2347	0.437	0.415	0.436	0.416	1.32	0.818	1.02	0.834	0.396	0.406	0.387	0.447	0.364	0.251	0.289	0.256	0.248
NCI-H1993	0.496	0.488	0.462	0.474	0.659	0.67	0.532	0.555	0.452	0.623	0.533	0.641	0.57	0.468	0.42	0.534	0.46
NCI-H322M	0.63	0.525	0.52	0.537	0.907	0.608	0.62	0.655	0.681	0.627	0.556	0.691	0.605	0.435	0.428	0.334	0.347
NCI-H838	0.234	0.233	0.216	0.215	1.08	0.819	0.631	0.887	0.23	0.248	0.26	0.231	0.239	0.496	0.46	0.346	0.36
HARA	0.222	0.241	0.227	0.228	0.802	0.78	0.652	1.01	0.194	0.207	0.128	0.185	0.212	0.66	0.331	0.483	0.618
NCI-H2087	0.669	0.696	0.639	0.668	0.812	0.801	0.705	0.72			0.657	0.73	0.605	0.158	0.161	0.15	0.138
NCI-H1437	0.246	0.242	0.242	0.284	1.31	1.2	1.04	1.11	0.297	0.286	0.318	0.32	0.297	0.404	0.3	0.277	0.277
NCI-H1648	0.661	0.606	0.624	0.637					0.707			0.674	0.547	0.391	0.285	0.282	0.39
NCI-H1792	0.641	0.333	0.303	0.27					0.778	0.859	0.791	0.785	0.711	0.343	0.188	0.145	0.211
ChaGo-K-1	0.252	0.253	0.273	0.258	0.831	0.829	0.828	0.888	0.262	0.249	0.227	0.235	0.237	0.827	0.869	0.81	0.823
NCI-H650	0.837	0.706	0.745	0.692	1.02	0.738	0.819	0.782	0.853	0.942	0.803	0.956	0.859	0.867	0.572	0.743	0.611
COR-L23	0.203	0.198	0.173	0.183	0.967	0.865	0.762	0.695	0.186	0.198	0.187	0.197	0.184	0.59	0.542	0.441	0.269
HCC-44	0.688	0.6	0.627	0.618					0.656	0.653	0.788	0.724	0.605	0.879	0.871	0.717	1.02
A549					0.891	0.659	0.582	0.272									
NCI-H1563	0.92	0.708	0.73	0.662	1	0.975	0.784	0.83	0.679	0.82	0.871	0.644	0.794				
NCI-H522	0.832	1.25	0.706	0.933					1.01	1.05	0.955	0.844	1.03	0.692	0.696	0.595	0.586
IA-LM					1.3	1.11	0.921	1.13									
NCI-H1703					0.294	0.303	0.309	0.273									
NCI-H727					0.694	0.396	0.357	0.324						0.312	0.283	0.267	0.221
